# Measurements: patent publication US12516086B2 (SRI International, priority 2021, dated 2026)
# pEC50: −log10 of the molar value. Ends that are not written are not given here.
# Tests used:
# [1] = tested on: HMC3 cells (human microglia cell line); test: Peptide uptake by quantitative flow cytometry in HMC3 cells; format: cell-based
# Description: Under both cell states, an average of ˜60,000 molecules of MGS2_V4-2 were internalized. […] All cell lines were incubated with MGS2_V4-2 at 25 nM for 1 hour at 37° C.
# Cells were incubated at the indicated concentration of each peptide construct that had been labeled with Alexa Fluor 647. After 1 h incubation at 37° C., uptake was determined by quantitative flow cytometry. […] Thus, uptake is mediated by the MGS not the MTS.
# However, binding was rescued by using the tetrameric MGS2_V4-4 as the targeting peptide in this multifunctional chimera (shown in panel A).
# (§1) Peptide concentration and incubation time as well as cell line used is indicated in each figure. […] Cells were removed by trypsinization. Flow cytometry was performed on a BD FACSCelesta, and data were analyzed using FlowJo_v10.8. Cells were gated based on the forward and side scatter to include only viable cells and a minimum of 10,000 events were counted. For absolute peptide uptake per cell, a standard curve was generated using Quantum™ Alexa Fluor 647 microspheres. MFI was determined at 50% at peak height. Molecules internalized per cell were determined by the standard curve relating MESF to MFI and divided by the number dye molecules/MGS conjugate. GraphPad Prism® was used for non-linear regression curve fitting to calculate an EC50.
# HMC3 cells were activated with interferon-gamma (IFN-γ) (10 ng/ml, 24 h). Resting phenotype was characterized by expression of IBA1, and endotoxin receptor CD14, but negative for the astrocyte marker GFAP. […] In Vivo MTS and MTS-MGS Targeting Experiments
# [2] = Serum stability (RP-HPLC of Alexa Fluor 647 labeled peptide); format: in vitro ADME; conditions: 37° C., 24 h
# Description: MGS2_V4-2 labeled with Alex Fluor 647 was incubated in human serum at 37° C. At the indicated times, an aliquot was removed, serum proteins were precipitated, and the resultant supernatant was analyzed by reverse phase HPLC monitoring the absorbance at 650 nm. Chromatograms for each time point are shown. Intact peptide has a retention time at 11.864. […] Peaks were integrated to determine the percentage of intact peptide as well as the amount of observed degradation product. At 24 h, >75% of the MGS2_V4-2 is still intact. Electrospray mass spectrometry was performed on the peptide product arising at the 10.005 min retention time. The mass of this new species corresponds to the loss of the 3 amino acids on both branches of MGS2_V4-2.
# The concentration of a solution of peptide conjugated with dye (Alexa Fluor 647) was determine by absorbance at 651 nm and ˜14 nmol of peptide was lyophilized. The lyophilized peptide powder was dissolved in 400 μL of human serum (Innovative Research, H6430) to achieve a 35 μM solution. The sample was incubated at 37° C. and shaken. For each time point (0, 1, 2, 4, 20 and 24 hours), a 50 μL aliquot was removed from the reaction and 100 μL of absolute ethanol was added to precipitate serum proteins. Samples were incubated on ice for 15 mins before being centrifuged at 12,000 rpm for 5 mins. […] Finally, 100 μL of each sample were analyzed by analysis RP-HPLC.
# [3] = rat, in vivo
# Description: MTS variants labeled with the near infrared dye Alexa Fluor 750 were injected into the tail vein of Sprague Dawley rats at 1 μg MTS/kg rat body weight. At the indicated time, CSF was isolated via capillary puncture of the cisterna magna. […] To assure the fatty acid is not driving the transport into the CNS, a control peptide scMTS3_V2-2 which contains the MTS3 amino acid composition but with a scrambled sequence was lipidated.
# The MTS peptide directly conjugated to Alexa Fluor 750 dye (1 μg/g body weight) is injected via lateral tail vein into a Sprague-Dawley Rat and allowed to circulate for the indicated time (20 min, 1 h 6 h, 24 h). The animal is anesthetized 10 mins prior to the end of the time point and 2 mL 200× Heparinized Saline is injected intraperitoneally. To collect the CSF, a blunt dissection of the back of the neck is performed to expose the clear dura mater covering the cisterna magna. Using a glass micropipette, CSF is aspirated from the cisterna magna at the indicated time point. Following CSF collection, a transcardial perfusion is performed by flushing with 500 mL ice cold 1× PBS containing heparin to remove any blood from the body. The brain and other tissues are isolated. The brain is homogenized using a Dounce homogenizer in lysis buffer (30 mM Tris-HCl, pH 8.0 0.05% Triton X-100) and the soluble fraction collected. […]
# [4] = rat, in vivo; remark: listed apart in the source
# Description: Coronal slices are 1 mm and arranged from the front (upper left) to back (lower right).
# Coronal slices of 1 mm thickness are prepared using a brain matrix. The slices are imaged on an Odyssey Imager collecting fluorescent signal at 800 nm.
# HT-22 cells = test: Receptor recycling: MGS_NOE3_V2-4 uptake with chloroquine or cycloheximide; format: cell-based, mouse; conditions: 100 nM MGS_NOE3_V2-4; 100 μM chloroquine or 250 μM cycloheximide; up to 24 h
# Description: The cellular receptor for MGS_NOE3_V2-4 is recycled (FIG. 22). HT-22 cells were incubated with culture medium containing 100 nM MGS_NOE3_V2-4 in the presence of 100 μM chloroquine or 250 μM cycloheximide for the indicated times. The cellular uptake was analyzed by flow cytometry. […] New protein synthesis is not required for continued uptake of MGS_NOE3_V2-4. Endosomal acidification is required for continued uptake of MGS_NOE3_V2-4. MGS_NOE3_V2-4 uptake continues with time.
# For experiments to determine if the cellular receptor is recycled, cells were treated with peptide in the presence of 100 μM chloroquine or 250 μM cycloheximide. At the indicated time points, the cells were washed and analyzed as described above.
# [5] = molecular target: Recombinant human transferrin receptor (Homo sapiens, UniProt P02786); test: ELISA binding to plate-absorbed transferrin receptor; conditions: receptor at 1 μg/mL, biotinylated peptide at varying concentrations, 1 h
# Description: Recombinant human transferrin receptor was absorbed onto high binding ELISA plates at 1 μg/mL. […] Retained MTS peptide was detected using streptavidin-HRP and TMB reagent. The absorbance was measured at 450 nm and is proportional to the amount of MTS peptide captured by transferrin receptor. […] By comparison, MTS3_V1-2 and a scrambled control peptide of MTS2_V1-2 show no binding. The binding affinity of MTS2_V1-2 for transferrin receptor was determined by biolayer interferometry on a OctetRED 96 system. The biotinylated MTS2_V1-2 peptide was captured on streptavidin probe. The kon and koff rate were determined at various concentrations of human or mouse transferrin receptor allowing for determination of the dissociation constant.
# [6] = human serum (Innovative Research, H6430); conditions: 37° C., up to 24 hours
# [7] = tested on: HT22 cells (mouse hippocampal neuronal cell line); test: Peptide uptake by quantitative flow cytometry in HT22 cells; format: cell-based; conditions: for Uptake into HT22 cells versus concentration (in words): 1 h at 37° C.
# Description: FIG. 26A. […] FIG. 26B. […] FIG. 26C.
# (§2) It must be on the tetrameric core to function. […] The number of molecules of peptide internalized per cell was determined by a quantitative flow cytometry assay. […] MGS_NOE3_V1-4 and MGS_NOE3_V2-4 display a 5-6-fold specificity for neurons over astrocytes and 3-fold specificity compared to microglia. […] Incubations were performed for 1 h at 37° C. […] Uptake was determined by flow cytometry assay.
# as §1
# HT22 cells = test: Confocal live cell imaging of internalization into HT22 cells; conditions: 200 nM, 37° C., Alexa Fluor 647
# Description: Cells were incubated with 200 nM, and the average uptake per cell was determined. […] Alexa Fluor 488 conjugated wheat germ agglutinin was used to label the cell membrane and Hoechst 33342 was used to stain the nucleus. Live cell imaging was performed, and representative images are shown.
# AlexaFluor488 conjugated wheat germ agglutinin was used to label the cell membrane and Hoechst 33342 was used to stain the nucleus. Live cell imaging was performed, and representative images are shown.
# The test cells were seeded in 35 mm confocal microscopy dish 24 hours prior to treatment. The test peptides labeled with Alexa Fluor 647 were incubated on cells in media for the indicated time at 37° C. After incubation, the cells were washed 3 times with PBS, 2 times with 0.1 M HCl-glycine pH 2.2 in 0.9% NaCl and 1 time with PBS. Alexa Fluor 488 conjugated wheat germ agglutinin was used to label the cell membrane and Hoechst 33342 was used to stain the nucleus. Microscopy was acquired on a Zeiss LSM 700 with a Pln Apo 63×/1.4 oil DIC III objective. Images were processed using Zen software.
# For peptides that were biotinylated instead of direct labeling with Alexa Fluor 647, the peptide-SA-AF647 conjugate was prepared by mixing Alexa Fluor™ 647 conjugated streptavidin and biotinylated peptide with an equal molecular ratio in 100 μl PBS for 30 minutes at room temperature. […]
# brain cells = test: Brain cell association after intrathecal injection, flow cytometry; format: in vivo, C57BL/6 mouse; conditions: Alexa Fluor 647 label, 1 hr circulation, compared to naïve animals
# From the text: (A) Gating strategy for total brain cells vs debris. (B) Gating strategy excluding cell doublets. FIG. 24C indicates the fluorescent intensity of MGS_NOE3-V2-4 internalized into brain cells following intrathecal injection compared to naïve animals.
# MGS_NOE3-V2-4 was labeled with Alexa Fluor 647 and injected intrathecally in a C57BL/6 mouse. After the peptide circulated for 1 hr, the animal was euthanized, and the brain tissue was harvested. The whole brain was subsequently dissociated using the Miltenyi Biotec gentleMACS Octo Dissociator. The number of MGS_NOE3_V2-4 molecules internalized into brain cells were analyzed by flow cytometry (BD FACSCelesta).
# Alternatively, all CNS cells were analyzed as a mixture by dissociating the brain using the Miltenyi Biotec gentleMACS Octo Dissociator. No enrichment for a CNS subpopulation was performed and cells were directly analyzed by flow cytometry. Gating was used to eliminate cell debris and cell doublets.
# [8] = tested on: HT22 and GT1/7 neuronal cell lines vs CTX TNA2 astrocytes and HMC3 microglia; test: Uptake of MGS_NOE3 tetramers across cell lines by quantitative flow cytometry; format: cell-based, mouse, rat, human; conditions: 200 nM, 1 h
# Description: as §2, §1
# Recombinant human transferrin receptor, sequence (P02786 whole entry): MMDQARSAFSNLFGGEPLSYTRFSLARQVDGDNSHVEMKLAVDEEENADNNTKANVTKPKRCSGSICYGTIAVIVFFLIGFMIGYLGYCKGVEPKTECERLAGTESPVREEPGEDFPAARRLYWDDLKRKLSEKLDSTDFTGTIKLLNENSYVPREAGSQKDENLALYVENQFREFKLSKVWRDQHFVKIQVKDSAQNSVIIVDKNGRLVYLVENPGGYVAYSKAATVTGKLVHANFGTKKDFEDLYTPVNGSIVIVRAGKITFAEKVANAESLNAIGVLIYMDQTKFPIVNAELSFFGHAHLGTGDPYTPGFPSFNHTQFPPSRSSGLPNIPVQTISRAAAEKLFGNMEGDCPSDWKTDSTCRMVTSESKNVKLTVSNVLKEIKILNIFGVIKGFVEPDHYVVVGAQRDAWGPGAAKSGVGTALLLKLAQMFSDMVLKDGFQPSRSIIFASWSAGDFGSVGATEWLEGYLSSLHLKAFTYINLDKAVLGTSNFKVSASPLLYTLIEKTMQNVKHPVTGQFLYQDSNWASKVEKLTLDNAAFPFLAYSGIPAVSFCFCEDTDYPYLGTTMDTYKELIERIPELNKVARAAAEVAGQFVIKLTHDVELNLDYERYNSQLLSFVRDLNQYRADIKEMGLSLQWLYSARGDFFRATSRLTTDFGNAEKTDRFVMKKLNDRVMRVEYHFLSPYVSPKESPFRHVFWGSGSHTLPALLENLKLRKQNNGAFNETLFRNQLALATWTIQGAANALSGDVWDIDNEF
molecule,measurement,setting,value
"dimeric form of MGS2_V4, Ac-YAAWPASGAWT (SEQ ID NO:8) [MGS2_V4-2]",Uptake in HMC3 cells versus other CNS cell lines (specificity),"[1]; 25 nM, 1 hour at 37° C., versus neuronal cells, Schwann cell, astrocytes",significantly higher in HMC3 cells than other cells of the central nervous system
same,Molecules internalized (average),"[1]; HMC3 cells of resting or activated phenotype, 1 hour","~60,000 molecules"
same,pEC50,"[1]; HMC3 cells, 1 h at 37° C., read-out: EC50 (half maximal uptake)",8.14
same,Intact peptide in human serum,[2],> 75%
"MTS3_V2-2 (Ac-SKETYSMNAQRQHERS; also: dimer, C16 fatty acid)","Transport into the brain parenchyma, fold higher than nonmodified MTS3_V1-2",[3],10-12 fold
same,"Transport into the brain parenchyma, fold higher than scrambled control scMTS3_V2-2",[3],17-31 fold
same,Brain uptake by fluorescent imaging of 1 mm coronal slices,[4],increased brain uptake compared to MTS3_V1-2 at all time points
C[C@@H]1C[C@@H]([C@H](O)CC2CC(=O)NC(=O)C2)C(=O)[C@@H](C)C1 [Cycloheximide],Effect on MGS_NOE3_V2-4 uptake,HT-22 cells,no impact on MGS_NOE3_V2-4 uptake
MTS3_V1-2 (Ac-SKETYSMNAQRQHERS; also: dimer),Cellular uptake in HMC3 cells (in words),"[1]; 1 h at 37° C., quantitative flow cytometry",no significant cellular uptake at any of the concentrations tested
same,Binding to transferrin receptor in ELISA (absorbance at 450 nm),[5],no binding
Ac-YAAWPASGAWT,fragment found,[6],"loss of the 3 amino acids on both branches of MGS2_V4-2, 1 h"
Ac-GFHNVYPYTWGGFSDIDLMADEI [MGS_NOE3_V2],Uptake into HT22 cells versus concentration (in words),[7],no uptake was observed on HT22 cells
CCN(CC)CCCC(C)Nc1ccnc2cc(Cl)ccc12 (stereo not shown) [chloroquine],Effect on MGS_NOE3_V2-4 uptake,HT-22 cells,greatly reduces uptake
MGS_NOE3_V2-4: tetrameric version of Ac-GFHNVYPYTWGGFSDIDLMADEI (SEQ ID NO:5) (also: tetrameric construct),Internalization into HT22 cells by confocal live cell imaging,HT22 cells,internalized into neuronal cells
same,Association with brain cells after intrathecal injection,brain cells,associated with cells in the CNS after intrathecal injection
same,Uptake into HT22 cells over time (in words),"[7]; 200 nM, 37° C.",increases over time
same,Uptake into HT22 cells versus concentration (in words),[7],increases with increasing concentration
same,Intracellular concentration reached,[7]; uptake to at least 24 H,≈ 1 μM
same,Specificity for neurons compared to microglia,[8],3 fold
MGS_NOE3_V1-4: tetrameric version of GFHNVYPYTWGGFSDIDLMADEI (SEQ ID NO:1) (also: tetrameric construct on a core linker),Specificity for neurons compared to microglia,[8],3 fold
MGS_NOE3_V2-2 (Ac-GFHNVYPYTWGGFSDIDLMADEI; also: dimer),Uptake into HT22 cells versus concentration (in words),[7],no uptake was observed on HT22 cells
"dimer version of MTS2_V1, Ac-FPSWTSKNQQWTNQRQ (also: dimer) [MTS2_V1-2]",Binding to transferrin receptor in ELISA (absorbance at 450 nm),[5],binds to human transferrin in a concentration dependent manner which saturates at higher concentrations
